In data set [1] the test system is CXCR4-expressing Chem_1 cells. Put plainly: Determination of internalization, dual tracer with 125I-Fc-131. To be noted: for Cell-bound [%] / Internalized [%]: of total cellular activity. In kind it is cell-based. The method, then:
CXCR4-expressing Chem_1 cells were grown in DMEM-F12 medium supplemented with 10 vol % FBS, 1 vol % NEA, 1 vol % PenStrep and 1 vol % HEPES (1.00 M). Cells were maintained in a 5% CO2 atmosphere at 37° C.
For in vitro experiments, cells were harvested by removal of the medium and incubation of the cells with trypsine/EDTA (0.05%/0.02%; w/v) for 30 in at 37° C.
Each well (n=3 for every time point) was either treated with 25 μL DMEM-F12 (+5 wt % BSA) or 25 μL of an AMD3100 stock (1 mM in H2O) for blockage of the receptors.
The experiment was stopped by placing the well-plate on ice and removing the supernatant. The cells were washed with 250 μL cold HBSS and the both fractions for each well combined, comprising the amount of unbound radioligand.
The supernatant was removed, the cells washed with cold HBSS and the respective fractions combined to obtain the amount of surface-bound radioligand.
The cells were then incubated with 300 μL NaOH (1.00 M in H2O) for at least 30 at r.t. before the supernatant was removed. The well was washed with another 300 μL NaOH and the fractions combined that contain the amount of internalized radioligand.
The three different fractions were subjected to activity measurement in the γ-counter, measuring the activity of the radionuclide used for the labeling of the peptide under investigation first. […] Data was corrected for non-specific internalization and referred to the specific internalization of the standard ligand

The target in the next data set is CXCR4 (Homo sapiens, UniProt P61073). Description: Determination of IC50: competition with 125I-Fc-131 on CXCR4-positive Jurkat cells.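 Further: test compound at 10^−5 to 10^−11 M competed for 2 h at 8 °C with the radioligand on 400,000 cells per well, bound versus free activity measured by γ-counting.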 In kind it is binding. Further details: CXCR4-positive Jurkat T lymphocyte cells were grown in Gibco's RPMI 1640 GlutaMAX medium; endogenous in cells; host or cells: Jurkat T lymphocyte cells (whole cells in suspension, 400.000 per tube).

Data set [2] can be described thus: Octanol/PBS partition coefficient (logD7.4). The following applies: n-octanol/PBS pH 7.4, radiolabeled compound. The format is physicochemical. On the procedure:
The tubes were vortexed at maximum speed for 3 min to ensure equilibrium before centrifugation at 15.000×g for 5 min on a Biofuge 15 from Heraeus Holding GmbH (Osterode, Germany). An aliquot of 100 μL of each fraction was measured in the γ-counter and the log D7.4 calculated as follows: […]

[3] abbreviates: unlabeled or cold (natGa/natLu) compound vs 125I-Fc-131, Jurkat cells.

Data on 4 molecules can be found in US20250288704A1, “CXCR4-LIGANDS FOR DIAGNOSTIC AND THERAPEUTIC USE AND PRECURSORS THEREOF” (priority 2021, published 2025).

Where two headings read alike, the source gives them in different places. Starred links: 1 amine or outer side, 2 acyl side, 3 side chain; linkers in the order of their positions; H or OH if unused. Positions of bridges follow the written chain, without caps; N, C: chain ends. Non-standard residues stand in square brackets, D forms with d. Residues, ends and D or L forms follow the SMILES beside them. Groups on a side chain read outwards from the residue. Chains are numbered I, II in the order given. *: point of attachment. X7 = O=C(O)CN1CCN(CC(=O)O)CCN([C@H](CCC(=O)*)C(=O)O)CCN(CC(=O)O)CC1; Benzoyl(4-SiFtBu2) = CC(C)(C)[Si](F)(c1ccc(C(=O)*)cc1)C(C)(C)C; DOTA = O=C(O)CN1CCN(CC(=O)O)CCN(CC(=O)*)CCN(CC(=O)O)CC1; d(γGlu) = O=C(O)[C@@H](CCC(=O)[*:2])N[*:1]; 2Nal = N[C@@H](Cc1ccc2ccccc2c1)C(=O)O; dNMeOrn = CN[C@H](CCCN)C(=O)O; 4Amb = NCc1ccc(C(=O)O)cc1; 4Abz = Nc1ccc(C(=O)O)cc1; dDap = NC[C@@H](N)C(=O)O; CO = O=C([*:1])[*:2]; Ahx = NCCCCCC(=O)O

The term IC50 denotes the concentration at which inhibition is half-maximal.

Chain of CXCR4 (P61073 whole entry): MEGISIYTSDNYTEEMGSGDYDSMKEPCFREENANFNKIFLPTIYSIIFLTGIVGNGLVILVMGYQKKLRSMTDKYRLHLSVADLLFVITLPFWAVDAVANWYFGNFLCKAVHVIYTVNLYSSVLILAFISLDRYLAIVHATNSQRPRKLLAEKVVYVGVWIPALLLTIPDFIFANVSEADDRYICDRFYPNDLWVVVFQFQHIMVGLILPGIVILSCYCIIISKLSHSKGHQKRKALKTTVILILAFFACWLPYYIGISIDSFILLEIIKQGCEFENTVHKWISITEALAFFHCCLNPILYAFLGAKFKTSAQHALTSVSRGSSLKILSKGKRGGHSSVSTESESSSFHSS

With `C[C@@H](NC(=O)[C@@H](CCCNC(=N)N)NC(=O)[C@@H](CN)NC(=O)CN1CCN(CC(=O)O)CCN(CC(=O)O)CCN(CC(=O)O)CC1)C(=O)NCc1ccc(C(=O)NCCC[C@@H]2C(=O)N[C@@H](CCCNC(=N)N)C(=O)N[C@@H](Cc3ccc4ccccc4c3)C(=O)NCC(=O)N[C@H](Cc3ccc(O)cc3)C(=O)N2C)cc1` [CXCR4-DOTA-1 [Lu]] (cyclo([dY][dNMeOrn]([4Amb-dA-dR-dDap-DOTA])R[2Nal]G)), the “Internalized in relation to 125I-Fc-131 [%]” value (“Internalized in relation … [%]” for short) stood at 78.3 ± 6.93% in data set [1] (15 min), 95.0 ± 9.39% in data set [1] (30 min), 109 ± 24.6% in data set [1] (60 min) and 133 ± 7.31% in data set [1] (120 min). The “Cell-bound [%]” value in data set [1] (15 min) stood at 4.27 ± 0.38%; in data set [1] (30 min), 4.43 ± 0.08%; in data set [1] (60 min), 6.02 ± 0.67%; in data set [1] (120 min), 4.97 ± 0.31%. In addition, the “Internalized [%]” value in data set [1] (15 min) was determined as 2.61 ± 0.20%; in data set [1] (30 min), 3.28 ± 0.27%; in data set [1] (60 min) it was 5.04 ± 0.92%; in data set [1] (120 min) it was 7.08 ± 0.22%. The “Internalization [% Fc-131] 2 h” value in data set [1] (2 h, 177Lu-labeled) is given as 133 % Fc-131. For the same molecule, at CXCR4 (unlabeled or cold (natGa/natLu) compound vs 125I-Fc-131, Jurkat cells, read-out: IC50), the IC50 worked out at 5.05 ± 1.75 nM. In addition, the logD7.4 in data set [2] is on record as −3.41 ± 0.05 (6).

On to `CC[C@H](C)[C@@H]([C@@H](CC(=O)N1CCC[C@H]1[C@H](OC)[C@@H](C)C(=O)N[C@H](C)[C@@H](O)c1ccccc1)OC)N(C)C(=O)[C@@H](NC(=O)[C@H](C(C)C)N(C)C(=O)OCc1ccc(NC(=O)[C@H](CCCNC(N)=O)NC(=O)[C@@H](NC(=O)CCCCCN2C(=O)CC(SCC[C@@H](N)C(=O)N[C@H](Cc3c[nH]cn3)C(=O)N[C@H](CCCNC(=N)N)C(=O)N[C@H](C)C(=O)Nc3ccc(C(=O)NCCC[C@@H]4C(=O)N[C@@H](CCCNC(=N)N)C(=O)N[C@@H](Cc5ccc6ccccc6c5)C(=O)NCC(=O)N[C@H](Cc5ccc(O)cc5)C(=O)N4C)cc3)C2=O)C(C)C)cc1)C(C)C` (stereo partly drawn) [CXCR4-MMAE-3], for which the “Internalization 2 h [% of bound peptide]” value in data set [1] (2 h, 125I-labeled) was 24.9 ± 0.85 % of bound peptide. This molecule registered an IC50 on CXCR4 of 43.9 ± 6.18 nM. In addition, the logD7.4 in data set [2] was 0.80 ± 0.12 (6).

For the molecule `C[C@@H](NC(=O)[C@@H](CCCNC(=N)N)NC(=O)[C@@H](CN)NC(=O)CCCCCNC(=O)[C@@H](CNC(=O)CC[C@H](C(=O)O)N1CCN(CC(=O)O)CCN(CC(=O)O)CCN(CC(=O)O)CC1)NC(=O)[C@@H](CNC(=O)c1ccc([Si](F)(C(C)(C)C)C(C)(C)C)cc1)NC(=O)CC[C@@H](NC(=O)N[C@H](CCC(=O)O)C(=O)O)C(=O)O)C(=O)Nc1ccc(C(=O)NCCC[C@@H]2C(=O)N[C@@H](CCCNC(=N)N)C(=O)N[C@@H](Cc3ccc4ccccc4c3)C(=O)NCC(=O)N[C@H](Cc3ccc(O)cc3)C(=O)N2C)cc1` [CXCR4-SiFA-5 [Ga]] (I: {dE-CO-d(γGlu)}-[dDap](Benzoyl(4-SiFtBu2))[dDap](X7)[Ahx][dDap][dR][dA][4Abz] / II: cyclo([dY][dNMeOrn]R[2Nal]G); amide I:C-II:2), in data set [1] (30 min), the “Internalized in relation … [%]” value turned out to be 233 ± 44.1%, the “Cell-bound [%]” value is 0.66 ± 0.22% and the “Internalized [%]” value turned out to be 3.46 ± 0.57%. Moreover, in data set [1] (90 min), the “Internalization [% Fc-131]” value came out at 209 % Fc-131, the “Internalized in relation … [%]” value came out at 209 ± 27.2%, the “Cell-bound [%]” value was found to be 0.72 ± 0.34% and the “Internalized [%]” value was 3.70 ± 0.41%. In addition, the concentration for half-maximal inhibition (IC50) at CXCR4 (setting [3]) was 36.5 ± 4.51 nM. Also, the logD7.4 in data set [2] was −1.85 ± 0.07 (7).

`C[C@@H](NC(=O)[C@@H](CCCNC(=N)N)NC(=O)[C@@H](CN)NC(=O)CCCCCNC(=O)[C@@H](CNC(=O)CC[C@H](C(=O)O)N1CCN(CC(=O)O)CCN(CC(=O)O)CCN(CC(=O)O)CC1)NC(=O)C[N+](C)(C)Cc1ccc([Si](F)(C(C)(C)C)C(C)(C)C)cc1)C(=O)Nc1ccc(C(=O)NCCC[C@@H]2C(=O)N[C@@H](CCCNC(=N)N)C(=O)N[C@@H](Cc3ccc4ccccc4c3)C(=O)NCC(=O)N[C@H](Cc3ccc(O)cc3)C(=O)N2C)cc1` [CXCR4-SiFA-6 [Ga]]: in data set [1] (30 min), the “Internalized in relation … [%]” value was 829 ± 48.1%, the “Cell-bound [%]” value came out at 0 ± 0.29% and the “Internalized [%]” value is 37.0 ± 1.06%. In addition, in data set [1] (90 min), the “Internalization [% Fc-131]” value amounted to 980 % Fc-131, the “Internalized in relation … [%]” value came to 980 ± 85.6%, the “Cell-bound [%]” value amounted to 0.81 ± 0.14% and the “Internalized [%]” value was determined as 48.1 ± 1.26%. This molecule returned an IC50 on CXCR4 (setting [3]) of 5.52 ± 0.71 nM. The logD7.4 in data set [2] was −1.05 ± 0.06 (8).
